Legend:
[1] = tested on: postmenopausal osteoporotic out-patients; assay: preventive treatment of bone mass loss in postmenopausal osteoporotic women; type: in vivo, human; conditions: at or above 1.0 μg/day, 24 to 36 months
Method: A clinical study is conducted with postmenopausal osteoporotic out-patientshaving ages between 55 and 75 years. The study involves up to 120 patients randomly divided into three treatment groups and continues for 24 to 36 months. Two of the treatment groups receive constant dosages of 1α,24(S)-dihydroxy vitamin D2 (u.i.d.; two different dose levels at or above 1.0 μg/day) and the other group receives a matching placebo. All patients maintain a normal intake of dietary calcium (500 to 800 mg/day) and refrain from using calcium supplements. Efficacy is evaluated by pre-and post-treatment comparisons of the patient groups with regard to (a) total body calcium retention, and (b) radial and spinal bone mineral density as determined by dual-photon absorptiometry (DPA) or dual-energy x-ray absorptiometry (DEXA). Safety is evaluated by comparisons of urinary hydroxyproline excretion, serum and urine calcium levels, creatinine clearance, blood urea nitrogen, and other routine determinations.

[2] = molecular target: T1, vitamin D serum binding protein (DBP) (Rattus norvegicus, UniProt P04276); assay: affinity for vitamin D serum binding protein in vitamin D deficient rat serum
T1 sequence (P04276 17-476): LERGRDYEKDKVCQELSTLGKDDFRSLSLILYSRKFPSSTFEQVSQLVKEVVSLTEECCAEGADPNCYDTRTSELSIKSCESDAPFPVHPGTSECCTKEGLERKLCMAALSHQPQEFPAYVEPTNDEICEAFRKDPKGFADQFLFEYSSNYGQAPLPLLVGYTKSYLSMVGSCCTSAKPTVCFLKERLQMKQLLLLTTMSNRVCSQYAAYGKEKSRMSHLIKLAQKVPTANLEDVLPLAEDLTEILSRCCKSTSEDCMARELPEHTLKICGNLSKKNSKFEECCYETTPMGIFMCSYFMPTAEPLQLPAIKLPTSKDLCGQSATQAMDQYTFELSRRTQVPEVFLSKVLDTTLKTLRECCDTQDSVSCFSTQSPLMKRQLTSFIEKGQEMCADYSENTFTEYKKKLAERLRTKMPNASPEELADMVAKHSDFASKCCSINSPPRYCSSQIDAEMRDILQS
Text: In addition, the weak binding by the DBP was indicative of more rapid clearance, allowing for low toxicity.

[3] = tested on: healthy postmenopausal women; assay: prophylaxis of postmenopausal bone loss; type: in vivo, human; conditions: at or above 1.0 μg/day
Method: A clinical study is conducted with healthy postmenopausal women having ages between 55 and 60 years. The study involves up to 80 patients randomly divided into two treatment groups, and continues for 24 to 36 months. One treatment group receives a constant dosage of 1α,24(S)-dihydroxy vitamin D2 (u.i.d.; a dose level at or above 1.0 μg/day) and the other receives a matching placebo. The study is conducted as indicated in Example 2 above.

[4] = tested on: dermatitis (contact and ectopic) patients; assay: dermatological testing, topical treatment of dermatitis; type: in vivo, human; conditions: ointment 10 μg per gram, twice daily, four to six weeks
Method: Compositions containing 1α,24(S)-dihydroxy vitamin D2 are evaluated for therapeutic efficacy of the composition in the topical treatment of dermatitis (contact and ectopic). The composition evaluated is an ointment containing 10 μg of 1α,24-dihydroxy vitamin D2 per gram of ointment in a petrolatum-almond oil base. […] The patients are treated in an out-patient clinic. They are instructed to use the preparation two times a day.
The ointment is as far as possible applied to a single lesion, or to an area of the disease. The ointment and its container are weighed before the treatment starts and returned with any unused contents for reweighing at the end of the treatment.
The area of the lesion treated is estimated and recorded, and the lesion is photographed as required, together with suitable "control" lesions. The latter are preferably lesions of similar size and stage of development, either in the vicinity of the treated lesion or symmetrically contralateral. Relevant details of the photographic procedure are recorded so as to be reproduced when the lesions are next photographed (distance, aperture, angle, background, etc.). The ointment is applied twice daily and preferably left uncovered. The "control" lesions are left untreated, but if this is not possible, the treatment used on them is noted. […]

[5] = tested on: postmenopausal osteoporotic women; assay: dose ranging study in postmenopausal osteoporotic women; type: in vivo, human; conditions: oral 0.5 to 8.0 μg/day escalating over five weeks
Method: Twenty postmenopausal osteoporotic women are enrolled in an open label study.
On admission to the study, all patients receive instruction on selecting a daily diet containing 400 to 600 mg of calcium. Compliance to this diet is verified at weekly intervals by 24-hour food records and by interviews with each patient.
All patients complete a one-week baseline period, a five-week treatment period, and a one-week post-treatment observation period. During the treatment period, patients orally self-administer 1α,24(S)-dihydroxyvitamin D2 at an initial dose of 0.5 μg/day for the first week, and at successively higher doses of 1.0, 2.0, 4.0, and 8.0 μg/day in each of the following four weeks. All doses are administered before breakfast.
Blood and urine chemistries are monitored on a weekly basis throughout the study. Key blood chemistries include fasting serum levels of calcium, phosphorus, osteocalcin, creatinine, and blood urea nitrogen. Key urine chemistries include 24-hour excretion of calcium, phosphorus, and creatinine.

binding affinity for the vitamin D serum binding protein [2]: relatively poor binding affinity
binding to the vitamin D serum binding protein relative to 1,25-(OH)2 D3 [2]: more weakly than does 1,25-(OH)2 D3
Structure (SMILES): C=C1/C(=C\C=C2/CCC[C@]3(C)[C@@H]([C@H](C)/C=C/[C@@](C)(O)C(C)C)CC[C@@H]23)C[C@@H](O)C[C@@H]1O [1α,24(S)-(OH)2 D2, 1α,24(S)-dihydroxy vitamin D2]
incidence of hypercalcemia, hypercalciuria or other metabolic disturbance [1]: insignificant incidence of hypercalcemia or hypercalciuria, or any other metabolic disturbance
total body calcium, radial and spinal bone densities relative to placebo [1]: significantly higher total body calcium, and radial and spinal bone densities relative to patients treated with placebo
losses in total body calcium, radial or spinal bone densities relative to baseline ([3]; 24 to 36 months): reduced losses in total body calcium, radial or spinal bone densities relative to baseline values
monitored safety parameters ([3]; long-term administration): confirm the safety of long-term 1α,24(S)-dihydroxy vitamin D2 administration
lesion severity score (erythema, scaling, thickness; 0 to 3) [4]: lower scores than the control lesions
24-hour urinary calcium levels [5]: modest increases in 24-hour urinary calcium levels
routinely monitored serum parameters [5]: no effect on any routinely monitored serum parameters
serum osteocalcin levels [5]: increases in serum osteocalcin levels
urinary excretion of hydroxyproline [5]: nor does it increase urinary excretion of hydroxyproline
